A word on the melting point: it is the temperature, or range, at which the solid turns liquid.

Structures can show the parent of a compound that is named as a salt.

Among the data in patent US20110257148A1, “NOVEL 1-ALKYL-3-HYDROXY-3-PHENYLAZETIDINE DERIVATIVES USEFUL AS MODULATORS OF CORTICAL CATECHOLAMINERGIC NEUROTRANSMISSION” (NSAB, FILIAL AF N[…] AB, SVERIGE, priority 2008, published 2011) are melting point values, retold here.

`CC(C)N1CC(O)(c2cc(F)cc(F)c2)C1` (as salt: fumaric acid salt) gave a melting point of 185 to 186 °C.
For `CCCN1CC(O)(c2ccc(F)c(F)c2)C1` (as salt: fumaric acid salt) the value was 157 to 159 °C; for `CCCN1CC(O)(c2cc(F)cc(F)c2)C1` (as salt: fumaric acid salt), 162 to 164 °C.
`CCCN1CC(O)(c2cc(F)cc(Cl)c2)C1` (as salt: fumaric acid salt) returned a melting point of 147 to 149 °C.
In turn, `CCCN1CC(O)(c2cccc(F)c2F)C1` (as salt: fumaric acid salt) [Example 1, 3-(2,3-DIFLUOROPHENYL)-1-PROPYLAZETIDIN-3-OL] showed a melting point of 161 to 165 °C.
Turning to `CCCN1CC(O)(c2cccc(Cl)c2F)C1` (as salt: fumaric acid salt) [Example 6, 3-(3-Chloro-2-Fluorophenyl)-1-Propylazetidin-3-Ol], the melting point was in the range of 167 to 168 °C.
